# Experimental data published in patent US9073955B2, “2-amino-4-arylthiazole compounds as TRPA1 antagonists” (Glenmark Pharmaceuticals, S.A., priority 2010, dated 2015).
# Counter-ions that a name gives are not always drawn. Like-named read-outs stand apart in the source and are kept apart here.
# Biological target: T1, Human TRPA1 (Homo sapiens, UniProt O75762)
# T1 construct: expressed in transfected cells; host or cells: CHO cells (grown with 400 μg/ml G-418)
# Test: 45Calcium uptake assay: inhibition of AITC induced cellular uptake of radioactive calcium
# Format: cell-based
# Conditions: human TRPA1 expressing CHO cells, AITC 30 μM
# Method: The illustrative examples of the present invention were screened for TRPA1 activity according to a modified procedure described in (a) Tóth, A. et al. Life Sciences, 2003, 73, 487-498. ([…]. et al, Proc. Natl. Acad. Sci. U.S.A., 2007, 104, 13525-13530. The screening of the compounds can be carried out by other methods and procedures known to persons skilled in the art. Screening for TRPA1 Antagonist Using the ^45Calcium Uptake Assay: The inhibition of TRPA1 receptor activation was measured as inhibition of allyl isothiocyanate (AITC) induced cellular uptake of radioactive calcium. Test compounds were dissolved in 100% DMSO to prepare 10 mM stock and then diluted using plain medium with 0.1% BSA and 1.8 mM CaCl2 to get the desired concentration. The final concentration of DMSO in the reaction was 0.5% (v/v). Human TRPA1 expressing CHO cells were grown in F-12 DMEM medium with 10% FBS, 1% penicillin-streptomycin solution, and 400 μg/ml of G-418. Cells were seeded 24 h prior to the assay in 96 well plates so as to get 50,000 cells per well on the day of experiment. Cells were treated with the test compounds for 10 minutes followed by the addition of AITC at a final concentration of 30 μM and 5 μCi/ml^45Ca^+2 for 3 minutes. Cells were washed and lysed using a buffer containing 1% Triton X-100, 0.1% deoxycholate and 0.1% SDS. Radioactivity in the lysate was measured in a Packard TopCount after addition of liquid scintillant. (Toth et al, Life Sciences (2003) 73, 487-498; McNamara C R et al, Proceedings of the National Academy of Sciences, (2007) 104, 13525-13530). Concentration response curves were plotted as a % of maximal response obtained in the absence of test antagonist. IC50 values can be calculated from concentration response curve by nonlinear regression analysis using GraphPad PRISM software.
# [1] = 1.0 μM, read-out: Percentage inhibition at 1.0 μM
# [2] = 10.0 μM, read-out: Percentage inhibition at 10.0 μM
# [3] = CHO, read-out: Percentage inhibition at 1.0 μM, 1.0 μM
# [4] = CHO, read-out: Percentage inhibition at 10.0 μM, 10.0 μM
# T1 sequence (O75762 whole entry): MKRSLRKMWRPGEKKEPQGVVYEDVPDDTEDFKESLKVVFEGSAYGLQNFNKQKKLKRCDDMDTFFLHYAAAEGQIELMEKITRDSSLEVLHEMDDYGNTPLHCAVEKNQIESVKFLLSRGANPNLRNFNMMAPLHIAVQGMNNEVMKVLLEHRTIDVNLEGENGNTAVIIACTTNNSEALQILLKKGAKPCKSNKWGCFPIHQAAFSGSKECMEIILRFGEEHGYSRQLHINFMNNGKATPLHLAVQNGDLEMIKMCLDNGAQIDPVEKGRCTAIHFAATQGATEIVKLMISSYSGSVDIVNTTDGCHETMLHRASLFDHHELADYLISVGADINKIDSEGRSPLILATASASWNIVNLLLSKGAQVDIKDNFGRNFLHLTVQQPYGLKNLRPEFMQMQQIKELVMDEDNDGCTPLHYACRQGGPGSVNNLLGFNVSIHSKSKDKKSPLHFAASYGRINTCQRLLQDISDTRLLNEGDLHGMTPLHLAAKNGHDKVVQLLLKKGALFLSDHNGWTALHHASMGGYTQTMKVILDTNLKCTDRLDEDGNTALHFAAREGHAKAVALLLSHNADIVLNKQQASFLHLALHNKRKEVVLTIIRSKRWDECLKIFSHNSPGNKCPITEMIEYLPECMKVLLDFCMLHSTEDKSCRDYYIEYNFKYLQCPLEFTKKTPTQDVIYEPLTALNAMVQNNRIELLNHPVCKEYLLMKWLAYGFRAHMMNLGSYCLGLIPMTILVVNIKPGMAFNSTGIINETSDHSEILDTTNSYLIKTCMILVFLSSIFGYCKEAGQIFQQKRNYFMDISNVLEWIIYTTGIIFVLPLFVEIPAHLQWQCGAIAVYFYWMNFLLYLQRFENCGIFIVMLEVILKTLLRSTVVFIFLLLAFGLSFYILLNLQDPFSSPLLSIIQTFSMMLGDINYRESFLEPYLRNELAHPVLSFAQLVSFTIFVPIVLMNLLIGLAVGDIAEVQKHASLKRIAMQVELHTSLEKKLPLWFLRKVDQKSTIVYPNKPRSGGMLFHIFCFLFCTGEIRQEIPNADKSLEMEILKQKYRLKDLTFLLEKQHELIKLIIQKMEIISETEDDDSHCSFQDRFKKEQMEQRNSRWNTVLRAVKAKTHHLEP
Compound,inhibition at 1 µM [1] [%],inhibition at 10 µM [2] [%],IC50 [nM],"inhibition at 1 µM (CHO, 1.0 μM, read-out: Percentage inhibition at 1.0 μM) [%]","inhibition at 10 µM (CHO, 10.0 μM, read-out: Percentage inhibition at 10.0 μM) [%]",inhibition at 1 µM [3] [%],inhibition at 10 µM [4] [%]
"CC(C)C(=O)OCn1c(-c2ccc(F)c(C(F)(F)F)c2F)cs/c1=N\C(=O)Cc1csc2c1c(=O)n(C)c(=O)n2C [Example 2, [4-[2,4-Difluoro-3-(trifluoromethyl)phenyl]-2-{[(1,3-dimethyl-2,4-dioxo-1,2,3,4-tetrahydrothieno[2,3-d]pyrimidin-5-yl)acetyl]imino}-1,3-thiazol-3(2H)-yl]methyl-2-methylpropanoate]",54.8,70.2,> 500,–,–,–,–
"Cc1sc2c(c1CC(=O)/N=c1\scc(-c3ccc(F)c(C(F)(F)F)c3F)n1COP(=O)(O)O)c(=O)n(C)c(=O)n2C [Example 15, 4-(2,4-Difluoro-3-(trifluoromethyl)phenyl)-2-((2-(1,3,6-trimethyl-2,4-dioxo-1,2,3,4-tetrahydrothieno[2,3-(1]pyrimidin-5-yl)acetyl)imino)thiazol-3 (2H)-yl)methyl dihydrogen phosphate]",81.2,98.5,100 to 500,–,–,–,–
"Cc1sc2c(c1CC(=O)/N=c1\scc(-c3ccc(F)c(C(F)(F)F)c3F)n1COP(=O)(O)O)c(=O)n(C)c(=O)n2C [Example 16, Disodium(4-(2,4-difluoro-3-(trifluoromethyl)phenyl)-2-((2-(1,3,6-trimethyl-2,4-dioxo-1,2,3,4-tetrahydrothieno[2,3-d]pyrimidin-5-yl)acetyl)imino)thiazol-3(2H)-yl)methyl phosphate]",–,–,> 500,–,–,48.2,92.7
"CCc1sc2c(c1CC(=O)/N=c1\scc(-c3ccc(C(F)(F)F)c(F)c3)n1COP(=O)(O)O)c(=O)n(C)c(=O)n2C [Example 17, [2-{[(6-ethyl-1,3-dimethyl-2,4-dioxo-1,2,3,4-tetrahydrothieno[2,3-d]pyrimidin-5-yl)acetyl]imino}-4-[3-fluoro-4-(trifluoromethyl)phenyl]-1,3-thiazol-3 (2H)-yl]methyl dihydrogen phosphate]",20.8,96.8,> 500,–,–,–,–
"CCc1sc2c(c1CC(=O)/N=c1\scc(-c3ccc(C(F)(F)F)c(F)c3)n1COP(=O)(O)O)c(=O)n(C)c(=O)n2C [Example 18, Disodium[2-{[(6-ethyl-1,3-dimethyl-2,4-dioxo-1,2,3,4-tetrahydrothieno[2,3-d]pyrimidin-5-yl)acetyl]imino}-4-[3-fluoro-4-(trifluoromethyl)phenyl]-1,3-thiazol-3(2H)-yl]methyl phosphate]",–,–,–,–,–,30,88.7
"Cn1c(=O)c2c(CC(=O)/N=c3\scc(-c4ccc(C(F)(F)F)c(F)c4F)n3COP(=O)(O)O)nsc2n(C)c1=O [Example 31, [4-[2,3-Difluoro-4-(trifluoromethyl)phenyl]-2-{[(5,7-dimethyl-4,6-dioxo-4,5,6,7-tetrahydro[1,2]thiazolo[5,4-d]pyrimidin-3-yl)acetyl]imino}-1,3-thiazol-3 (2H)-yl]methyl dihydrogen phosphate]",60,99.2,> 500,–,–,–,–
"Cn1c(=O)c2c(CC(=O)N=c3scc(-c4ccc(C(F)(F)F)c(F)c4F)n3COP(=O)(O)O)nsc2n(C)c1=O [Example 32, Disodium-(4-(2,3-difluoro-4-(trifluoromethyl)phenyl)-2-((2-(5,7-dimethyl-4,6-dioxo-4,5,6,7-tetrahydroisothiazolo[5,4-d]pyrimidin-3-yl)acetyl)imino)thiazol-3 (2H)-yl)methyl phosphate]",13.8,81,> 500,–,–,–,–

# Now from value to molecule, other results behind:
inhibition at 1 µM [1] [%],inhibition at 10 µM [2] [%],IC50 [nM],"inhibition at 1 µM (CHO, 1.0 μM, read-out: Percentage inhibition at 1.0 μM) [%]","inhibition at 10 µM (CHO, 10.0 μM, read-out: Percentage inhibition at 10.0 μM) [%]",Compound,inhibition at 1 µM [3] [%],inhibition at 10 µM [4] [%]
68.1,90.3,100 to 500,–,–,"CC(C)C(=O)OCn1c(-c2ccc(C(F)(F)F)c(F)c2)cs/c1=N\C(=O)Cc1csc2c1c(=O)n(C)c(=O)n2C [Example 1, [2-{[(1,3-Dimethyl-2,4-dioxo-1,2,3,4-tetrahydrothieno[2,3-d]pyrimidin-5-yl)acetyl]imino}-4-[3-fluoro-4-(trifluoromethyl)phenyl]-1,3-thiazol-3 (2H)-yl]methyl-2-methyl propanoate]",–,–
–,–,< 100,98.6,99.9,"CC(C)[C@H](N)C(=O)OCn1c(-c2ccc(F)c(C(F)(F)F)c2F)cs/c1=N\C(=O)Cc1csc2c1c(=O)n(C)c(=O)n2C [Example 5, [4-[2,4-Difluoro-3-(trifluoromethyl)phenyl]-2-{[(1,3-dimethyl-2,4-dioxo-1,2,3,4-tetrahydrothieno[2,3-d]pyrimidin-5-yl)acetyl]imino}-1,3-thiazol-3 (2H)-yl]methyl L-valinate hydrochloride]",–,–
96.5,98.3,< 100,–,–,"Cn1c(=O)c2c(CC(=O)/N=c3\scc(-c4ccc(F)c(C(F)(F)F)c4F)n3COC(=O)[C@@H]3CCCN3)csc2n(C)c1=O [Example 8, [4-[2,4-Difluoro-3-(trifluoromethyl)phenyl]-2-{[(1,3-dimethyl-2,4-dioxo-1,2,3,4-tetrahydrothieno[2,3-d]pyrimidin-5-yl)acetyl]imino}-1,3-thiazol-3(2H)-yl]methyl L-prolinate hydrochloride]",–,–
80.1,94.8,100 to 500,–,–,"Cn1c(=O)c2c(CC(=O)/N=c3\scc(-c4ccc(C(F)(F)F)c(F)c4)n3COC(=O)C3CCNCC3)csc2n(C)c1=O [Example 9, [2-{[(1,3-Dimethyl-2,4-dioxo-1,2,3,4-tetrahydrothieno[2,3-d]pyrimidin-5-yl)acetyl]imino}-4-[3-fluoro-4-(trifluoromethyl)phenyl]-1,3-thiazol-3(2H)-yl]methylpiperidine-4-carboxylate hydrochloride]",–,–
–,–,100 to 500,–,–,"Cn1c(=O)c2c(CC(=O)/N=c3\scc(-c4ccc(C(F)(F)F)c(F)c4)n3COP(=O)(O)O)csc2n(C)c1=O [Example 12, Disodium[2-{[(1,3-dimethyl-2,4-dioxo-1,2,3,4-tetrahydrothieno[2,3-d]pyrimidin-5-yl)acetyl]imino}-4-[3-fluoro-4-(trifluoromethyl)phenyl]-1,3-thiazol-3 (2H)-yl]methyl phosphate]",–,–
70.3,96.7,100 to 500,–,–,"Cc1oc2c(c1CC(=O)/N=c1\scc(-c3ccc(OC(F)(F)F)c(Cl)c3)n1COC(=O)C(C)(C)C)c(=O)n(C)c(=O)n2C [Example 19, [4-[3-Chloro-4-(trifluoromethoxy)phenyl]-2-{[(1,3,6-trimethyl-2,4-dioxo-1,2,3,4-tetrahydrofuro[2,3-d]pyrimidin-5-yl)acetyl]imino}-1,3-thiazol-3 (2H)-yl]methyl 2,2-dimethylpropanoate]",–,–
99.2,99.6,100 to 500,–,–,"CC[C@H](C)[C@H](N)C(=O)OCn1c(-c2ccc(OC(F)(F)F)c(Cl)c2)cs/c1=N\C(=O)Cc1c(C)oc2c1c(=O)n(C)c(=O)n2C [Example 22, [4-[3-Chloro-4-(trifluoromethoxy)phenyl]-2-{[(1,3,6-trimethyl-2,4-dioxo-1,2,3,4-tetrahydrofuro[2,3-d]pyrimidin-5-yl)acetyl]imino}-1,3-thiazol-3 (2H)-yl]methyl L-isoleucinate hydrochloride]",–,–
98.1,99.8,< 100,–,–,"Cc1oc2c(c1CC(=O)/N=c1\scc(-c3ccc(OC(F)(F)F)c(Cl)c3)n1COC(=O)[C@@H](N)Cc1ccccc1)c(=O)n(C)c(=O)n2C [Example 24, 4-[3-Chloro-4-(trifluoromethoxy)phenyl]-2-{[(1,3,6-trimethyl-2,4-dioxo-1,2,3,4-tetrahydrofuro[2,3-d]pyrimidin-5-yl)acetyl]imino}-1,3-thiazol-3(2H)-yl]methyl L-phenylalaninate hydrochloride]",–,–
93.8,99.3,< 100,–,–,"Cc1oc2c(c1CC(=O)/N=c1\scc(-c3ccc(C(F)(F)F)c(F)c3F)n1COP(=O)(O)O)c(=O)n(C)c(=O)n2C [Example 27, 4-[2,3-Difluoro-4-(trifluoromethyl)phenyl]-2-{[(1,3,6-trimethyl-2,4-dioxo-1,2,3,4-tetrahydrofuro[2,3-d]pyrimidin-5-yl)acetyl]imino}-1,3-thiazol-3(2H)-yl]methyl dihydrogen phosphate]",–,–
